Structures can show the parent of a compound that is named as a salt.

A short description of one data set: in vitro. The note with it: rat, gh3-tre-luc cells, AC50 (uM) modified / 1000.
The compound `CN(C)C(=O)Nc1ccc(Cl)c(Cl)c1` [Diuron] yielded a CC50 at 24 h above 90 µM.

As to `C=Cc1ccccc1C=C` [Divinylbenzene], the CC50 at 24 h is above 400 µM. As to `C=C[Si](C)(C=C)O[Si](C)(C)C` [Divinyltetramethyldisiloxane], the cytotoxic concentration (CC50) at 24 h is above 90 µM. As to `CC(CCc1ccc(O)cc1)NCCc1ccc(O)c(O)c1` (centres unmarked) [Dobutamine], the CC50 at 24 h was above 50 µM. The same measure, in the same setting: as for `CC1=C(C)C(=O)C(CCCCC#CCCCC#CCO)=C(C)C1=O` [Docebenone], the figure is 23.5 µM.

Compound `CCCCCCCCCCCC` [Dodecane] showed a CC50 at 24 h above 90 µM. Still for that read-out and setting: the same measure for `O=C(O)CCCCCCCCCCC(=O)O` [Dodecanedioic acid]: above 90 µM; for `CCCCCCCCCCCC(=O)O` [Dodecanoic acid]: above 90 µM. Take `C=C(C)C(=O)OCCCCCCCCCCCC` [Dodecyl 2-methylacrylate]: the CC50 at 24 h was above 90 µM. Compound `CCCCCCCCCCCCOC(C)=O` [Dodecyl acetate] gave a 50% cytotoxic concentration (CC50) at 24 h above 90 µM. Still for that read-out and setting: as for `CCCCCCCCCCCCOCC1CO1` (centres unmarked) [Dodecyl glycidyl ether], the figure is above 90 µM; as for `CCCCCCCCCCCCc1ccccc1` [Dodecylbenzene], above 90 µM.

The compound `CCCCCCCCCCCCOC(=O)c1ccc(O)cc1` [Dodecylparaben] yielded a CC50 at 24 h of 26 µM. In other words, the double-digit micromolar range. On the same count and under the same terms, as for `CCCCCCCCCCCC[N+](C)(C)C` [Dodecyltrimethylammonium chloride], the figure is 15.8 µM; as for `CCCCCCCCCCCCNC(=N)N` [Dodine], above 4 µM; as for `CN(CCOc1ccc(NS(C)(=O)=O)cc1)CCc1ccc(NS(C)(=O)=O)cc1` [Dofetilide], above 50 µM. With `O=C(O[C@@H]1C[C@@H]2C[C@H]3C[C@H](C1)N2CC3=O)c1c[nH]c2ccccc12` [Dolasetron mesylate], the midpoint of cytotoxicity, the CC50 at 24 h, lay at 37.3 µM. Turning to `O=c1[nH]c2ccccc2n1CCCN1CCC(n2c(=O)[nH]c3cc(Cl)ccc32)CC1` [Domperidone], the midpoint of cytotoxicity, the CC50 at 24 h, lay at 40.2 µM.

Turning to `NCCc1ccc(O)c(O)c1` [Dopamine hydrochloride], it took 55.3 µM to reach half-maximal cytotoxicity (CC50 at 24 h). Regarding `Oc1ccc(CCNCCCCCCNCCc2ccccc2)cc1O` [Dopexamine], half-maximal cytotoxicity (CC50 at 24 h) was put at 37.1 µM. The same measure, in the same setting: as for `Cc1ccc(-n2nc(C(C)(C)C)cc2NC(=O)Nc2ccc(OCCN3CCOCC3)c3ccccc23)cc1` [Doramapimod], the figure is above 50 µM; as for `CO[C@H]1C[C@H](O[C@H]2[C@H](C)O[C@@H](O[C@@H]3/C(C)=C/C[C@@H]4C[C@@H](C[C@]5(C=C[C@H](C)[C@@H](C6CCCCC6)O5)O4)OC(=O)[C@@H]4C=C(C)[C@@H](O)[C@H]5OC/C(=C\C=C\[C@@H]3C)[C@]54O)C[C@@H]2OC)O[C@@H](C)[C@@H]1O` [Doramectin], 2.94 µM.

The compound `O=[N+]([O-])c1nccn1CO[C@@H](CO)[C@H](O)CO` [Doranidazole] had a CC50 at 24 h above 50 µM.

Compound `C[C@@H](O)[C@H]1C(=O)N2C(C(=O)O)=C(S[C@@H]3CN[C@H](CNS(N)(=O)=O)C3)[C@H](C)[C@H]12` [Doripenem] returned a CC50 at 24 h above 50 µM. `CCN[C@H]1C[C@H](C)S(=O)(=O)c2sc(S(N)(=O)=O)cc21` [Dorzolamide hydrochloride] displayed a CC50 at 24 h above 50 µM. The same measure, in the same setting: as for `CN(C)CC/C=C1\c2ccccc2CSc2ccccc21` [Dothiepin hydrochloride], the figure is 6.1 µM; as for `CCN1CC(CCN2CCOCC2)C(c2ccccc2)(c2ccccc2)C1=O` (centres unmarked) [Doxapram hydrochloride], above 50 µM; as for `COc1cc2nc(N3CCN(C(=O)C4COc5ccccc5O4)CC3)nc(N)c2cc1OC` (centres unmarked) [Doxazosin mesylate], 25.4 µM. The same measure, in the same setting: the same measure for `CN(C)CCC=C1c2ccccc2COc2ccccc21` [Doxepin hydrochloride]: 13.5 µM. For `C[C@H]1O[C@@H](n2cc(F)c(=O)[nH]c2=O)[C@H](O)[C@@H]1O` [Doxifluridine], the CC50 at 24 h was above 50 µM. Same read-out and setting: as for `Cn1c(=O)c2c(ncn2CC2OCCO2)n(C)c1=O` [Doxofylline], the figure is above 50 µM; as for `C[C@H]1c2cccc(O)c2C(=O)C2=C(O)[C@]3(O)C(=O)C(C(N)=O)=C(O)[C@@H](N(C)C)[C@@H]3[C@@H](O)[C@@H]21` [Doxycycline hydrochloride], above 50 µM. Still for that read-out and setting: the same measure for `CN(C)CCOC(C)(c1ccccc1)c1ccccn1` (centres unmarked) [Doxylamine succinate]: above 50 µM; for `CCN(CC)CCOC(=O)C(c1ccccc1)C1CCCCC1` (centres unmarked) [Drofenine hydrochloride]: 21.1 µM. The same measure, in the same setting: as for `CCCCc1oc2ccc(NS(C)(=O)=O)cc2c1C(=O)c1ccc(OCCCN(CCCC)CCCC)cc1` [Dronedarone], the figure is 9.94 µM; as for `O=C(CCCN1CC=C(n2c(=O)[nH]c3ccccc32)CC1)c1ccc(F)cc1` [Droperidol], above 50 µM; as for `OCC(O)CN1CCN(c2ccccc2)CC1` (centres unmarked) [Dropropizine], above 50 µM. Turning to `C[C@]12CCC(=O)C=C1[C@@H]1C[C@@H]1[C@H]1[C@@H]3[C@@H]4C[C@@H]4[C@@]4(CCC(=O)O4)[C@@]3(C)CC[C@@H]12` [Drospirenone], the CC50 at 24 h was above 50 µM. The same measure, in the same setting: the same measure for `N[C@H](C(=O)O)[C@H](O)c1ccc(O)c(O)c1` [Droxidopa]: above 50 µM; for `CCOc1ccc(NC(N)=O)cc1` [Dulcin]: above 90 µM; for `C[C@]12C=CC(=O)N[C@@H]1CC[C@@H]1[C@@H]2CC[C@]2(C)[C@@H](C(=O)Nc3cc(C(F)(F)F)ccc3C(F)(F)F)CC[C@@H]12` [Dutasteride]: above 50 µM.

`CCCCOc1ccc(C(=O)CCN2CCCCC2)cc1` [Dyclonine hydrochloride]: the midpoint of cytotoxicity, the CC50 at 24 h, lay at 4.72 µM. Same read-out and setting: the same measure for `CC(=O)[C@H]1CC[C@H]2[C@@H]3C=CC4=CC(=O)CC[C@@]4(C)[C@@H]3CC[C@]12C` [Dydrogesterone]: above 20 µM; for `Cn1c(=O)c2c(ncn2CC(O)CO)n(C)c1=O` (centres unmarked) [Dyphylline]: above 20 µM; for `O=C(O)/C=C/c1ccccc1` [E-Cinnamic acid]: above 90 µM. With `O=C(OCC1CCC2OC2C1)C1CCC2OC2C1` (centres unmarked) [ECC], the CC50 at 24 h is above 100 µM. Still for that read-out and setting: the same measure for `CCCN(CCC)C(=O)SCC` [EPTC]: above 100 µM; for `O=c1c2ccccc2[se]n1-c1ccccc1` [Ebselen]: 19.6 µM; for `CC(C)c1cc2c(cc1S(=O)(=O)O)[C@@]1(C)CCC[C@@](C)(C(=O)O)[C@@H]1CC2` [Ecabet]: above 50 µM. Still for that read-out and setting: as for `C[C@@H]1O[C@@H](O[C@@H]2[C@@H](O)[C@H](OCCc3ccc(O)c(O)c3)O[C@H](CO[C@@H]3O[C@H](CO)[C@@H](O)[C@H](O)[C@H]3O)[C@H]2OC(=O)/C=C/c2ccc(O)c(O)c2)[C@H](O)[C@H](O)[C@H]1O` [Echinacoside], the figure is above 90 µM; as for `CCCCCCCCCCCCCCCCCCOCC(COP(=O)([O-])OCC[N+](C)(C)C)OC` (centres unmarked) [Edelfosine], 43.1 µM; as for `CCc1cn([C@H]2C[C@H](O)[C@@H](CO)O2)c(=O)[nH]c1=O` [Edoxudine], above 50 µM. For `CC[N+](C)(C)c1cccc(O)c1` [Edrophonium chloride], the CC50 at 24 h is above 20 µM.

The data set is the same for the next values; noted with them: rat, gh3-tre-luc cells, AC50 (uM) modified / 1000, Tox21_110001=Tox21_111251; viability, 1 nM T3 present, 24 h.
On to `C[C@]12N[C@H](Cc3ccccc31)c1ccccc12` [Dizocilpine maleate], for which the cytotoxic concentration (CC50) at 24 h is above 50 µM.

The same data set, now with this note: rat, gh3-tre-luc cells, AC50 (uM) modified / 1000, Tox21_110001=Tox21_201304; viability, 1 nM T3 present, 24 h.
Turning to `CCCCCCCCCCCC#N` [Dodecanenitrile], the CC50 at 24 h was above 90 µM.

The data set is the same for the next values; noted with them: rat, gh3-tre-luc cells, AC50 (uM) modified / 1000, Tox21_110001=Tox21_301355; viability, 1 nM T3 present, 24 h.
As to `CCOP(=O)(Sc1ccccc1)Sc1ccccc1` [Edifenphos], the CC50 at 24 h was above 90 µM.

The record behind these values is paper PMC6792352, “Limited Chemical Structural Diversity Found to Modulate Thyroid Hormone Receptor in the Tox21 Chemical Library” (Environmental Health Perspectives, 2019).
